# In patent EP0771187B1, “NOVEL COMBINATION PRODUCT COMPRISING AN ANTIFUNGAL AGENT AND CROTAMITON AS AN ANTIFUNGAL ACTIVITY ENHANCER AND DERMATOLOGICAL OR COSMETIC COMPOSITIONS COMPRISING SAME” (Pierre Fabre Dermo-Cosmetique, priority 1994, dated 1996):
# Assays:
# Type in all cases: cell-based
# [1] = tested on: P. ovale éco-R; assay: Fungicidal activity: checkerboard combined with Afnor membrane filtration, 5 min contact (Example 2, Table 2); settings: Pityrosporium ovale, pH 9, read-out: Mg; for log reduction at 2 %: product alone at 2 %
# Experimental: (§1) La technique utilisée est originale car elle utilise à la fois le principe de la technique de l'échiquer et celui de la norme Afnor par filtration sur membrane relative à la fongicidie avec un temps de contact germe-molécules de 5 minutes.
# (§2) C'est une macro-méthode qui a donc été réalisée ici avec validations à chaque essai du témoin solvant des molécules (Tween® 20 %, éthanol 17 % dans l'eau distillée).
# (§3) L'association de l'octopirox avec le crotamiton a été testé selon la méthodologie de l'exemple 1 sur une souche Pityrosporium ovale éco-R et C. albicans ATCC 9021.
# Le tableau 2 représente les résultats obtenus sur P. ovale éco-R après cinq minutes de contact pour l'association : • crotamiton 1 % - octopirox 1 % pour lequel nous avons 100 % d'efficacité • alors que les produits seuls à double ou quadruple concentrations sont moins actifs.
# (§4) Le même solvant a été utilisé et validé à chaque essai comme le spécifie la norme Afnor.
# (§5) Les essais de l'exemple 2 ont été réalisés avec un pH plus basique = 9.
# [2] = tested on: C. albicans ATCC 9021; assay: Fungicidal activity: checkerboard combined with Afnor membrane filtration, 5 min contact (Example 2, Table 3); settings: Candida albicans, ATCC9021, 5 min, pH 9, read-out: Mg; for log reduction at 2 %: product alone at 2 %
# Experimental: as §1, §2, §3, §4
# Ces Résultats ont été confirmés sur une levure de référence Afnor (C.albicans ATCC 9021). Les résultats sont reportés dans le tableau 3.
# as §5
# [3] = tested on: Pityrosporium ovale sauvages dont une éco-R; assay: Fungicidal activity: checkerboard combined with Afnor membrane filtration, 5 min contact (Example 1); settings: pH about 8, read-out: Mg : moyenne géométrique du Log 10 de la réduction du nombre de germes; for log reduction at 2 %: product alone at 2 % (m/v); for log reduction at 4 %: product alone at 4 % (m/v)
# Experimental: CMF définissant la concentration minimale de fongicide pour laquelle on obtient une diminution de 4.Log 10 de l'inoculum ensemencé en 5 minutes de contact à 20°C.
# Des souches de Malassezia furfur (Pityrosporum ovale) ont été testées pour leur sensibilité vis-à-vis des principes actifs seuls ou bien en association selon l'invention.
# Les souches sont issues du Laboratoire de Parasitologie du Centre Hospitalier Régional de Rangueil de TOULOUSE (France) et une souche est éconazole résistante (éco-R). Elles ont été cultivées lors des essais sur milieu Dixon solide.
# as §1, §2
# Ce solvant inhibe légèrement l'activité de la ciclopiroxolamine, et il faut donc s'attendre à de meilleurs résultats en pratique. Les autres témoins sont celui de la vigueur de la souche et de l'efficacité des produits seuls, soit : - ciclopiroxolamine 4 % - crotamiton 4 %
# Le tableau 1 représente les moyennes géométiques de la réduction logarithmique sur deux Pityrosporium ovale sauvages dont une éco-R, le nombre d'essais ainsi que le pourcentage d'efficacité.
# La norme Afnor considère qu'il y a fongicidie pour une réduction de 4 Log 10 de l'inoculum après 15 minutes de contact.
# Le pH de l'ensemble de ces études se situe autour de 8.
Compound,log reduction at 2 % [1],log reduction at 1 % ([2]; product alone at 1 %),log reduction at 2 % [2],log reduction at 2 % [3],log reduction at 4 % [3],log reduction at 4 % ([1]; product alone at 4 %),log reduction at 1 % ([3]; product alone at 1 % (m/v)),log reduction at 4 % ([2]; product alone at 4 %)
"Cc1cc(CC(C)CC(C)(C)C)n(O)c(=O)c1 (stereo not drawn) [Octo, octopirox]",1.85,0.36,3.18,–,–,–,–,–
"Cc1cc(C2CCCCC2)n(O)c(=O)c1 [CPO, ciclopirox olamine]",–,–,–,0.43,2.05,–,–,–
"CC=CC(=O)N(CC)c1ccccc1C [Crota, N-éthyl-N-O-tolylcrotonamide]",1.59,–,2.43,0.77,3.77,3.26,0.03,4.95
